Experimental data from PubChem BioAssay (NCI).
Several values for one entry are separate records, joined by “and”; a condition that tells them apart may be missing. Equal entries are not always repeated.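 Exposure lasted 48 hours, with cells grown in 96-well plates and compounds tested at five concentrations. GI50 marks 50% less growth. TGI marks complete inhibition of growth.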

Assays:
Test in all cases: growth of human tumour cells (NCI), 48 h
SN12C renal = tested on: SN12C renal
SF-539 CNS = tested on: SF-539 CNS
SK-MEL-2 melanoma = tested on: SK-MEL-2 melanoma
SK-MEL-28 melanoma = tested on: SK-MEL-28 melanoma
HOP-62 NSCLC = tested on: HOP-62 NSCLC
A549 NSCLC = tested on: A549 NSCLC
NCI-H23 lung = tested on: NCI-H23 lung
COLO 205 colon = tested on: COLO 205 colon
SK-OV-3 ovarian = tested on: SK-OV-3 ovarian
NCI-H522 lung = tested on: NCI-H522 lung

Structure (SMILES)	GI50 (SN12C renal) [µM]	TGI (SN12C renal) [µM]	GI50 (SF-539 CNS) [µM]	TGI (SF-539 CNS) [µM]	GI50 (SK-MEL-2 melanoma) [µM]	TGI (SK-MEL-2 melanoma) [µM]	GI50 (SK-MEL-28 melanoma) [µM]	TGI (SK-MEL-28 melanoma) [µM]	GI50 (HOP-62 NSCLC) [µM]	TGI (HOP-62 NSCLC) [µM]	GI50 (A549 NSCLC) [µM]	TGI (A549 NSCLC) [µM]	GI50 (NCI-H23 lung) [µM]	TGI (NCI-H23 lung) [µM]	GI50 (COLO 205 colon) [µM]	TGI (COLO 205 colon)	GI50 (SK-OV-3 ovarian) [µM]	TGI (SK-OV-3 ovarian) [µM]	GI50 (NCI-H522 lung) [µM]	TGI (NCI-H522 lung) [µM]
CC(C)CSc1nc(Nc2ccccc2)c(C#N)c(-c2ccc(F)cc2)n1	0.597	3.14	2.5	13.3	13.7	30.2	12.2	35.5	2.1	12.9	1.71	18.8	6.35	28.7	1.86	20.1 µM	8.13	32.5	14.4	71.4
COc1cc([C@@H]2c3cc4c(cc3C(O[C@@H]3O[C@@H]5CO[C@@H](c6cccs6)OC5[C@H](O)[C@H]3O)C3COC(=O)[C@@H]32)OCO4)cc(OC)c1O (some centres not stated)	0.0272	5.68	0.0268	0.199	0.207	0.87	0.171	0.953	0.0283	0.137	0.0209	0.822	0.0288	0.482	0.0984	0.809 µM	0.102	0.81	0.0369	0.396
O=C(CCCSc1nc(-c2ccc(Cl)cc2)cc(-c2ccc(Cl)cc2)n1)NO	0.513	7.22	1.26	4.93	4.02	20.4	3.15	17	0.618	11.9	1.59	12.4	1.63	10.4	2.06	6.21 µM	2.02	11.8	1.27	8.11
Cn1cc(C2=C(c3cn(CCCN=C(N)N)c4ccccc34)C(=O)NC2=O)c2ccccc21	> 19.8	> 25	> 25	> 25	> 18.4	> 25	> 25	> 25	> 25	> 25	> 25	> 25	> 25	> 25	9.76	> 25 µM	> 25	> 25	> 22.2	> 25
C=C1C(=O)O[C@H]2[C@H]1CC/C(COC(=O)/C=C\C(=O)NCc1ccc(Cn3c(=O)sn(-c4ccc(C#N)cc4)c3=O)cc1)=C\CC[C@@]1(C)O[C@@H]21	0.671	1.57	0.753	1.43	0.935	2.03	0.857	1.61	2.52	9	0.916	2.42	0.861	1.81	0.541	1.41 µM	4.02	10.5	0.714	1.65
COc1ccc(C(=O)/C=C/c2cccnc2Nc2cc(OC)c(OC)c(OC)c2)cc1	2.43	9.69	1.81	5.62	7.27	21	2.7	8.29	2.19	12.7	1.67	18.5	2.24	17.6	1.95	6.12 µM	4.12	16.4	0.93	2.65
CN(C)C(=S)SN(C)C(=O)Nc1ccccc1	–	89.3	–	> 81.1	–	> 100	–	53.6	–	> 100	–	> 100	–	> 80.5	–	> 100 µM	–	> 100	–	3.5
COc1ccc(C2CC(=O)c3c(OC)cc(OC)cc3O2)cc1 (configuration not stated)	> 100	> 100	> 100	> 100	> 100	> 100	> 100	> 100	> 100	> 100	> 100	> 100	> 100	> 100	> 100	> 100 µM	> 100	> 100	> 100	> 100
CCCCCCCCCCC(O)C1CCC(C2CCC(C(O)CCCCC(O)CCCCCC(O)CC3=CC(C)OC3=O)O2)O1 (configuration not stated)	> 25	> 25	–	> 25	3.62	> 25	4.28	> 25	7.3	> 25	1.93	> 25	0.0144	> 25	3.09	9.15 µM and > 25 µM	–	> 25	–	> 25
COc1ccc(-n2cc(-c3cc(OC)c(OC)c(OC)c3)[nH]c2=S)cc1OC	> 100	> 100	> 100	> 100	> 100	> 100	> 100	> 100	> 100	> 100	> 100	> 100	> 100	> 100	> 100	> 100 µM	> 100	> 100	> 100	> 100
COc1ccc(-c2nc(-c3nc4ccc(C)cc4[nH]3)c3ccccn23)cc1	3.08	> 100	3.32	> 100	2.51	5.71	4.61	> 100	3.72	> 100	2.67	> 100	3.85	> 100	3.23	> 100 µM	6.95	> 100	1.95	4.63
COC(=O)C(=O)C(C(=O)C(=O)Nc1ccc(C)cc1C)c1nc2ccccc2[nH]c1=O (configuration not stated)	–	> 100	–	98.5	–	> 100	–	> 100	–	> 100	–	> 100	–	> 100	–	> 100 µM	–	> 100	–	93
O=C(CC(=O)N1N=C(c2ccccc2)C(N=Nc2ccc(Cl)cc2)C1=O)Nc1ccccc1Cl (configuration not stated)	–	> 100	–	68.2	–	88.6	–	52.4	–	40.6	–	> 100	–	97	–	> 100 µM	–	40.4	–	> 100
Cn1cc(C2=C(c3cn(C)c4c(N)cccc34)C(=O)NC2=O)c2ccccc21	2.12	> 25	0.59	1.98	1.56	11	3.43	> 20.6	1.25	> 15.2	1.39	> 25	4.33	21.3	1.99	9.96 µM	1.22	> 20.1	0.996	> 15
